{
  "source": "patent US6387241B1",
  "about": "“Method of sterilization using ozone” (priority 1993, dated 2002)",
  "tested_on": "spores of Bacillus stearothermophilus and Bacillus subtilis var. niger (Duo-Spore paper spore strips)",
  "note": "Read-outs that look alike come from different tables or passages of the source.",
  "data": [
    {"smiles": "O=[O+][O-]", "note": "[ozone]", "values": [
      {"measurement": "ozone exposure time to achieve overkill (100% of the spore strips sterilized)", "setting": "\"flow through\" mode, about 2 liters per minute, 10-12 wt% ozone", "value": 60, "unit": "min"},
      {"measurement": "ozone exposure time to achieve overkill (100% of the spore strips sterilized)", "setting": "\"pressure\" mode, generator output 10-12 wt% ozone", "value": 45, "unit": "min"},
      {"measurement": "ozone exposure time to achieve overkill (100% of the spore strips sterilized)", "setting": "\"single fill\" mode, static 10 wt% ozone", "value": 90, "unit": "min"}
    ]}
  ]
}
